The target of one experiment is T1, recombinant alpha-glucosidase I (human full-length glucosidase I, Glu 1) (Homo sapiens, UniProt Q13724).
T1 construct: 6-His (C); made in house; host or cells: HEK-293T cells transduced with BacMam virus (virus raised in Sf9)
T1 sequence (Q13724 1-837): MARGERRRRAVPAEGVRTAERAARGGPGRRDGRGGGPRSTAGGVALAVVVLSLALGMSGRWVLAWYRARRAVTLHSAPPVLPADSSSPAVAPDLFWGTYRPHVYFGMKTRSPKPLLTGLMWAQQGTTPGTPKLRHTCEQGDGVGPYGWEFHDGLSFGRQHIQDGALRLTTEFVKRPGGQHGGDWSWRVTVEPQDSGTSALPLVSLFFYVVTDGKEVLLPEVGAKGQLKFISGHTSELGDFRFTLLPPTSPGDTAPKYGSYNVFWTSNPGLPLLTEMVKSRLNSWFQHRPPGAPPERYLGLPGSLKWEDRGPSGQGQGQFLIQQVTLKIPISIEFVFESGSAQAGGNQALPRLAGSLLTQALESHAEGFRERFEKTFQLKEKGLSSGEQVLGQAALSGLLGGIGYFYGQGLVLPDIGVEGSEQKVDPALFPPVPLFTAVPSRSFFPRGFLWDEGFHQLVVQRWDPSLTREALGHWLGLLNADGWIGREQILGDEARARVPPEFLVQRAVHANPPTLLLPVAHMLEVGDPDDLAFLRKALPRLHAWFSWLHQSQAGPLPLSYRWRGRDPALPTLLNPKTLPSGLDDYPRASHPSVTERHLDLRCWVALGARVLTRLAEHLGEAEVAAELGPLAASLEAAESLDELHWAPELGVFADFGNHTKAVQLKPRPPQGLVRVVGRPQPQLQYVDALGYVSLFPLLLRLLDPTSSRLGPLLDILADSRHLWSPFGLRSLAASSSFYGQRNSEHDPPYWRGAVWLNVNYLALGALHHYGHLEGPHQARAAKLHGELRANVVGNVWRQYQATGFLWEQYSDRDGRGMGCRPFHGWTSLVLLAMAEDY
In words: Alpha-glucosidase I assay (Amplex Red glucose detection, synthetic trisaccharide substrate). Type of experiment: biochemical.
Settings: not given
In a few lines: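 Compound dilution series incubated 60 min at 37° C with recombinant His-tagged human glucosidase I ([…]), after which trisaccharide substrate analog was added for 90 min at 37° C. Reaction quenched with 1.5M Tris pH 8; D-glucose detected by Amplex Red fluorescence, 560/590 nm. 4-PL curve fit of percent inhibition gave IC50.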
Turning to `[N-]=[N+]=Nc1ccc(NCCc2cncc(CCN3C[C@H](O)[C@@H](O)[C@H](O)[C@H]3CO)n2)c([N+](=O)[O-])c1` [Compound 1187, (2R,3R,4R,5S)-1-[2-(6-{2-[(4-azido-2-nitrophenyl)amino]ethyl}pyrazin-2-yl)ethyl]-2-(hydroxymethyl)piperidine-3,4,5-triol], the IC50 came to 94 nM. The same measure, in the same setting: next, `[N-]=[N+]=Nc1ccc(NCC/C=C/CCN2C[C@H](O)[C@@H](O)[C@H](O)[C@H]2CO)c([N+](=O)[O-])c1` [Compound 1260, (2R,3R,4R,5S)-1-[(3E)-6-[(4-azido-2-nitrophenyl)amino]hex-3-en-1-yl]-2-(hydroxymethyl)piperidine-3,4,5-triol]: 136 nM. Consider `O=[N+]([O-])c1cc(CCO)ccc1NCCCCCCN1C[C@H](O)[C@@H](O)[C@H](O)[C@H]1CO` [Compound 1292, (2R,3R,4R,5S)-1-(6-{[4-(2-hydroxyethyl)-2-nitrophenyl]amino}hexyl)-2-(hydroxymethyl)piperidine-3,4,5-triol], for which the IC50 came to 157 nM. `CS(=O)(=O)Nc1ccc(NCCCCCCN2C[C@H](O)[C@@H](O)[C@H](O)[C@H]2CO)c([N+](=O)[O-])c1` [Compound 1300, N-[3-nitro-4-({6-[(2R,3R,4R,5S)-3,4,5-trihydroxy-2-(hydroxy-methyl)piperidin-1-yl]hexyl}amino)phenyl]methanesulfonamide]: the half-inhibitory concentration (IC50) amounted to 157 nM. The same measure, in the same setting: next, `COCCc1ccc(CCCCCN2C[C@H](O)[C@@H](O)[C@H](O)[C@H]2CO)cc1` [Compound 1307, (2R,3R,4R,5S)-2-(hydroxymethyl)-1-{5-[4-(2-methoxyethyl)phenyl]pentyl}piperidine-3,4,5-triol]: 1160 nM. On the same count and under the same terms, next, `Cc1cc(-c2ccco2)ccc1NCc1ccc(CN2C[C@H](O)[C@@H](O)[C@H](O)[C@H]2CO)cc1` [Compound 1324, (2R,3R,4R,5S)-1-{[4-({[4-(furan-2-yl)-2-methylphenyl]amino}methyl)phenyl]methyl}-2-(hydroxymethyl)piperidine-3,4,5-triol]: under 1 nM; `Cc1cc(NCc2cccc(CN3C[C@H](O)[C@@H](O)[C@H](O)[C@H]3CO)n2)cc(-c2ccc[nH]2)c1` [Compound 1335, (2R,3R,4R,5S)-2-(hydroxymethyl)-1-{[6-({[3-methyl-5-(1H-pyrrol-2-yl)phenyl]amino}methyl)pyridin-2-yl]methyl}piperidine-3,4,5-triol]: 966 nM.

On to `Cc1nc2cc(-c3ncccn3)ccc2n1CCCCCCN1C[C@H](O)[C@@H](O)[C@H](O)[C@H]1CO` [Compound 1339, (2R,3R,4R,5S)-2-(hydroxymethyl)-1-{6-[2-methyl-5-(pyrimidin-2-yl)-1H-1,3-benzodiazol-1-yl]hexyl}piperidine-3,4,5-triol], for which the IC50 came out at 78 nM.

Still in this experiment, the particulars now being: Glucosidase 1; read-out: Glu 1 IC50.
As to `[N-]=[N+]=Nc1ccc(NCCc2cc(CCN3C[C@H](O)[C@@H](O)[C@H](O)[C@H]3CO)cs2)c([N+](=O)[O-])c1` [Compound 1179, (2R,3R,4R,5S)-1-[2-(5-{2-[(4-azido-2-nitrophenyl)amino]ethyl}thiophen-3-yl)ethyl]-2-(hydroxymethyl)piperidine-3,4,5-triol], the concentration for half-maximal inhibition (IC50) was under 1 nM. On the same count and under the same terms, the same measure for `COc1cc(CN2CCCO2)cc(NCCCCCCN2C[C@H](O)[C@@H](O)[C@H](O)[C@H]2CO)c1` [Compound 1182, (2R,3R,4R,5S)-2-(hydroxymethyl)-1-[6-({3-methoxy-5-[(1,2-oxazolidin-2-yl)methyl]phenyl}amino)hexyl]piperidine-3,4,5-triol]: 47 nM; for `OC[C@@H]1[C@@H](O)[C@H](O)[C@@H](O)CN1CCCCCCNc1cc(Cl)cc(CN2CCCO2)c1` [Compound 1183, (2R,3R,4R,5S)-1-[6-({3-chloro-5-[(1,2-oxazolidin-2-yl)methyl]phenyl}amino)hexyl]-2-(hydroxymethyl)piperidine-3,4,5-triol]: 154 nM.

With `O=Cc1cc(-c2ncccn2)ccc1NCCCCCCN1C[C@H](O)[C@@H](O)[C@H](O)[C@H]1CO` [Compound 1184, 5-(pyrimidin-2-yl)-2-({6-[(2R,3R,4R,5S)-3,4,5-trihydroxy-2-(hydroxymethyl)piperidin-1-yl]hexyl}amino)benzaldehyde], the IC50 stood at 84 nM. The same measure, in the same setting: the same measure for `[N-]=[N+]=Nc1ccc(NCCc2ccc(CCN3C[C@H](O)[C@@H](O)[C@H](O)[C@H]3CO)s2)c([N+](=O)[O-])c1` [Compound 1186, (2R,3R,4R,5S)-1-[2-(5-{2-[(4-azido-2-nitrophenyl)amino]ethyl}hiophen-2-yl)ethyl]-2-(hydroxymethyl)piperidine-3,4,5-triol]: 3 nM; for `[N-]=[N+]=Nc1ccc(NCCc2nccc(CCN3C[C@H](O)[C@@H](O)[C@H](O)[C@H]3CO)n2)c([N+](=O)[O-])c1` [Compound 1188, (2R,3R,4R,5S)-1-[2-(2-{2-[(4-azido-2-nitrophenyl)amino]ethyl}pyrimidin-4-yl)ethyl]-2-(hydroxymethyl)piperidine-3,4,5-triol]: 762 nM; for `[N-]=[N+]=Nc1ccc(NCCc2cnn(CCN3C[C@H](O)[C@@H](O)[C@H](O)[C@H]3CO)c2)c([N+](=O)[O-])c1` [Compound 1191, (2R,3R,4R,5S)-1-[2-(4-{2-[(4-azido-2-nitrophenyl)amino]ethyl}-1H-pyrazol-1-yl)ethyl]-2-(hydroxymethyl)piperidine-3,4,5-triol]: 7550 nM. Still for that read-out and setting: the same measure for `OC[C@@H]1[C@@H](O)[C@H](O)[C@@H](O)CN1CCCCCCNc1cc(Cl)cc(-c2cnccn2)c1` [Compound 1196, (2R,3R,4R,5S)-1-(6-{[3-chloro-5-(pyrazin-2-yl)phenyl]amino}hexyl)-2-(hydroxymethyl)piperidine-3,4,5-triol]: 105 nM. In the case of `COc1cc(NCCCCCCN2C[C@H](O)[C@@H](O)[C@H](O)[C@H]2CO)cc(-c2cnccn2)c1` [Compound 1197, (2R,3R,4R,5S)-2-(hydroxymethyl)-1-(6-{[3-methoxy-5-(pyrazin-2-yl)phenyl]amino}hexyl)piperidine-3,4,5-triol], the IC50 is 140 nM. On to `OC[C@@H]1[C@@H](O)[C@H](O)[C@@H](O)CN1CCCCCCNc1ccc(-c2cnccn2)cc1Cl` [Compound 1198, (2R,3R,4R,5S)-1-(6-{[2-chloro-4-(pyrazin-2-yl)phenyl]amino}hexyl)-2-(hydroxymethyl)piperidine-3,4,5-triol], for which the IC50 was found to be 12 nM. For the compound `COc1cc(-c2cnccn2)ccc1NCCCCCCN1C[C@H](O)[C@@H](O)[C@H](O)[C@H]1CO` [Compound 1199, (2R,3R,4R,5S)-2-(hydroxymethyl)-1-(6-{[2-methoxy-4-(pyrazin-2-yl)phenyl]amino}hexyl)piperidine-3,4,5-triol], the IC50 was found to be 77 nM.

Take `[N-]=[N+]=Nc1ccc(NCCc2ccc(CCN3C[C@H](O)[C@@H](O)[C@H](O)[C@H]3CO)cc2)c([N+](=O)[O-])c1` [Compound 1200, (2R,3R,4R,5S)-1-[2-(4-{2-[(4-azido-2-nitrophenyl)amino]ethyl}phenyl)ethyl]-2-(hydroxymethyl)piperidine-3,4,5-triol]: the concentration for half-maximal inhibition (IC50) stood at 31 nM.

Consider `OC[C@@H]1[C@@H](O)[C@H](O)[C@@H](O)CN1CCCCCCNc1ccc(-c2cccnn2)cc1Cl` [Compound 1202, (2R,3R,4R,5S)-1-(6-{[2-chloro-4-(pyridazin-3-yl)phenyl]amino}hexyl)-2-(hydroxymethyl)piperidine-3,4,5-triol], for which the IC50 was under 1 nM. Still for that read-out and setting: the same measure for `OC[C@@H]1[C@@H](O)[C@H](O)[C@@H](O)CN1CCCCCCNc1ccc(-c2ncco2)cc1Cl` [Compound 1203, (2R,3R,4R,5S)-1-(6-{[2-chloro-4-(1,3-oxazol-2-yl)phenyl]amino}hexyl)-2-(hydroxymethyl)piperidine-3,4,5-triol]: 3 nM; for `COc1cc(-c2ncco2)ccc1NCCCCCCN1C[C@H](O)[C@@H](O)[C@H](O)[C@H]1CO` [Compound 1207, (2R,3R,4R,5S)-2-(hydroxymethyl)-1-(6-{[2-methoxy-4-(1,3-oxazol-2-yl)phenyl]amino}hexyl)piperidine-3,4,5-triol]: 118 nM.

(Values after patent publication US20250197372A1 (priority 2020, published 2025).)
